pIC50: −log10 of the molar value. Values after ≈ are worked out from the molar mass of the structure shown.
Columns and labels:
B. subtilis (ATCC 6633) = assay: Minimum inhibitory concentration, broth microdilution; settings: Bacillus subtilis, ATCC6633, read-out: Minimum Inhibitory Concentration B.subtilis
E. coli DNA gyrase [1] = molecular target: T1, E. coli DNA gyrase (Escherichia coli (strain K12), UniProt P0AES4+P0AES6); assay: Agarose gel-based DNA gyrase inhibition assay; format: biochemical
Description: 100 ng of DNA gyrase was used to supercoil the rx pAB1 in the presence of different concentrations of a gyrase inhibitor. […] Samples were analyzed by electrophoresis in 1% w/v agarose gels followed by ethidium bromide staining and photographed under UV light.

S. aureus (ATCC 14775) = assay: Minimum inhibitory concentration, broth microdilution; settings: Staphylococcus aureus, ATCC14775, read-out: Minimum Inhibitory Concentration S.aureus
Description: (§1) Antibacterial minimum inhibitory concentrations (MICs) were obtained from three independent experiments using broth microdilution methods in 96-well plates according to Clinical and Laboratory Standards Institute guidelines. Cells were culture from singles colonies in MHIIB medium for 24 h at 37° C. in agitation (200 RPM). The cultures were then diluted using the same media to reach an OD600 of 0.1. Then, 50 µL of the diluted cultures were added to the plates holding 50 µL of serially diluted compounds in MHIIB. The plates were incubated at 37° C. for 20 h. The starting inoculum was fixated to 10^5 colony-forming units per ml.

MRSA = assay: as above; settings: Staphylococcus aureus, MRSA, read-out: Minimum Inhibitory Concentration S.aureus MRSA
Description: as §1

E. coli DNA gyrase [2] = molecular target: T1, E. coli DNA gyrase; assay: biochemical; format: biochemical; settings: for IC50: IC50 (15-[…] µM)
[3] = IC50 (50-200 µM), bin of Table 2
[4] = IC50 ([…]-50 µM), bin of Table 2
[5] = IC50 against E. coli DNA gyrase

Row | SMILES | inhibition of E. coli DNA gyrase activities (E. coli DNA gyrase [1]; 50 µM of compounds) | pIC50 (E. coli DNA gyrase [2]; [3]) | inhibition of E. coli DNA gyrase activities (E. coli DNA gyrase [1]; 200 µM of compounds) | other results
1 | O=C(O)C(Cc1ccccc1)N1C(=O)/C(=C\C=C\c2ccco2)SC1=S (stereo not shown) [Compound 157] | completely inhibited |  |  | MIC (B. subtilis (ATCC 6633)): 200 µM (≈ 77.1 µg/mL); MIC (S. aureus (ATCC 14775)): 200 µM (≈ 77.1 µg/mL); MIC (MRSA): 200 µM (≈ 77.1 µg/mL)
2 | O=[N+]([O-])c1cc(/C=N/Nc2nc3ccccc3[nH]2)c(O)cc1O [Compound 159] | completely inhibited |  |  | MIC (B. subtilis (ATCC 6633)): 200 µM (≈ 62.7 µg/mL); MIC (S. aureus (ATCC 14775)): 50 µM (≈ 15.7 µg/mL); MIC (MRSA): 100 µM (≈ 31.3 µg/mL)
3 | CN1C(=O)C(=Cc2ccc(Sc3ccccc3)o2)C(=O)N(C)C1=S [Compound 161] | completely inhibited |  |  | MIC (B. subtilis (ATCC 6633)): 200 µM (≈ 71.7 µg/mL); IC50 (E. coli DNA gyrase [2]; bin of Table 2): 15 to 25 µM
4 | O=C1N/C(=N\c2ccc3ccccc3c2)S/C1=C/c1ccco1 [Compound 163] | completely inhibited |  |  | IC50 (E. coli DNA gyrase [2]; bin of Table 2): 15 to 25 µM
5 | O=C(/C=C/c1ccco1)Nc1cccc2cccnc12 [Compound 164] |  |  |  | MIC (S. aureus (ATCC 14775)): 200 µM (≈ 52.9 µg/mL); MIC (MRSA): 200 µM (≈ 52.9 µg/mL)
6 | N#Cc1sc2nc(-c3ccccc3)cc(-c3ccco3)c2c1N [Compound 167] | potently inhibited | 3.70 to 4.30 |  | 
7 | O=C1/C(=C/c2ccc(O)cc2)SC(=S)N1Cc1cccnc1 [Compound 168] | potently inhibited | 3.70 to 4.30 |  | 
8 | Cc1ccc(/N=C2N=C(O)/C(=C/C=C/c3ccco3)S\2)cc1C [Compound 169] | completely inhibited |  |  | IC50 (E. coli DNA gyrase [2]; bin of Table 2): 15 to 25 µM
9 | Cc1cc(/C=C2/SC(=S)N(c3cccc(Cl)c3)C2=O)c(C)n1-c1cccnc1 [Compound 171] | completely inhibited |  |  | IC50 (E. coli DNA gyrase [2]; bin of Table 2): 15 to 25 µM
10 | O=C(NN1C(=O)/C(=C\C=C\c2ccco2)SC1=S)c1ccccc1O [Compound 180] | completely inhibited |  |  | IC50 (E. coli DNA gyrase [2]; bin of Table 2): 15 to 25 µM
11 | O=C1N=C(O)/C(=C/c2ccc(N3CCCC3)cc2)C(=O)N1Cc1ccc(F)cc1 [Compound 184] | potently inhibited |  |  | IC50 (E. coli DNA gyrase [2]; bin of Table 2): 15 to 25 µM; MIC (S. aureus (ATCC 14775)): 200 µM (≈ 78.7 µg/mL); MIC (MRSA): 200 µM (≈ 78.7 µg/mL)
12 | COc1cc(C(=O)Nc2scc(-c3ccc(Br)cc3)c2C(=O)O)cc(OC)c1OC [Compound 189] | completely inhibited |  |  | MIC (B. subtilis (ATCC 6633)): 100 µM (≈ 49.2 µg/mL); pIC50 (E. coli DNA gyrase [2]; [4]): 4.30 to 4.60
13 | COC(=O)C1C2CC3c4[nH]c5cc(OC)ccc5c4CCN3CC2CC(OC(=O)c2ccc(N)cc2)C1OC (stereo not shown) [Compound 204] |  | 3.70 to 4.30 | potently inhibited | 
14 | O=C1C(Cl)=C(NCCc2ccccc2)C(=O)c2ccccc21 [Compound 205] |  | 3.70 to 4.30 | potently inhibited | 
15 | O=C1c2ccccc2C(=O)c2cc(N3CCCCC3)ccc21 [Compound 206] |  | 3.70 to 4.30 | potently inhibited | 
16 | O=C(Cc1ccccc1)c1ccccn1 [Compound 213] |  | 3.70 to 4.30 | completely inhibited | 
17 | CCN(CCCNc1cc2c(c(N)c1S(=O)(=O)O)C(=O)c1ccccc1C2=O)c1ccccc1 [Compound 215] | completely inhibited |  | completely inhibited | pIC50 (E. coli DNA gyrase [2]; [4]): 4.30 to 4.60
18 | Cc1ccc([S+]([O-])c2ccc([N+](=O)[O-])c3nonc23)cc1 (stereo not shown) [Compound 222] | completely inhibited |  | completely inhibited | pIC50 (E. coli DNA gyrase [2]; [4]): 4.30 to 4.60
19 | COC1C(C)OC(OC2CC(C)(O)Cc3cc4c(c(O)c32)C(=O)c2c(O)cc3c(c2C4=O)OC2OC3(C)C(O)C(N(C)C)C2O)C(OC)C1(C)OC (stereo not shown) [Compound 224] | completely inhibited |  | completely inhibited | pIC50 (E. coli DNA gyrase [2]; [4]): 4.30 to 4.60
20 | CCN1C(=O)C(=CC=CN(C)c2ccccc2)SC1=S [Compound 227] |  | 3.70 to 4.30 | potently inhibited | 
21 | CN(C)c1ccc(C=C2SC(=S)N(Cc3ccco3)C2=O)cc1 [Compound 228] |  | 3.70 to 4.30 | potently inhibited | 
22 | Cc1cc(O)c2c(c1)C(=O)c1cc(O)cc(O)c1C2=O [Compound 242, Emodin] |  | 3.70 to 4.30 | completely inhibited | inhibition of E. coli DNA gyrase activities (E. coli DNA gyrase [2]): potently inhibited
23 | O=C1OC2(c3ccccc31)c1cc(I)c(O)c(I)c1Oc1c2cc(I)c(O)c1I [Compound 253, Erythrosin B] |  |  | completely inhibited | pIC50 (E. coli DNA gyrase [2]; [5]): > 5.00
24 | O=C1c2ccccc2C(=O)c2c1ccc(O)c2O [Compound 256, Alizarin] |  |  | completely inhibited | pIC50 (E. coli DNA gyrase [2]; [4]): 4.30 to 4.60; pIC50 (E. coli DNA gyrase [2]; [5]): > 5.00

From patent US20230364057A1, “BACTERIAL DNA GYRASE INHIBITORS AND METHODS OF USE THEREOF” (THE FLORIDA INTERNATIONAL UNIVERSITY BOARD OF TRUSTEES, priority 2022, published 2023)
